Measured values reported in US20230233305A1, “METHOD OF AMELIORATING OR TREATING INFLAMMATORY IN AN ORAL CAVITY” (priority 2022, published 2023).

Experiments:
LC3B = test: Immunohistochemistry of inflamed oral mucosal tissue with anti-LC3B; format: in vivo, domestic cats; conditions: after 6-week treatment vs 0th week
Procedure: (§1) The procedure of immunohistochemistry is briefly described as following. All steps are performed on the Leica Bond Max automatic immunohistochemistry machine. The aforementioned inflamed oral mucosal tissues fixed with formalin and embedded in paraffin is sectioned with a thickness of 5 μm, and placed on a glass slide suitable for performing immunohistochemistry. The tissue section is placed in a 50° C. oven for 15 minutes and is dewaxed twice with Bond Dewax Solution for 5 minutes. The tissue section is washed three times with Tris buffered saline (TBS, pH 7.6) for 5 minutes, and then treated with Bond Leica Alcohol for 5 minutes for tissue rehydration. After being washed three times with TBS for 5 minutes, the tissue section is heated at 100° C. with Bond Citrate buffer (pH 6), and the tissue used for detecting VDR is heated for 20 minutes, and the tissue used for detecting LC3B is heated for 40 minutes. After being washed three times with TBS for 5 minutes, the tissue section is reacted with Bond Peroxide solution for 8 minutes. After being washed three times with TBS for 5 minutes, the tissue section is reacted with Bond Protein blocking solution for 10 minutes. After being washed three times with TBS for 5 minutes, the tissue section is reacted with the primary antibodies for 30 minutes at room temperature, wherein the dilution ratio of anti-VDR antibody (ab3508) is 500×, and the dilution ratio of anti-LC3B antibody (ab239416) is 50×. After being washed three times with TBS for 5 minutes, the tissue section is reacted with Bond Post primary solution containing rabbit anti-mouse IgG antibody for 10 minutes. After being washed three times with TBS for 5 minutes, the tissue section is reacted with Bond Post primary solution containing Poly-HPR IgG for 10 minutes. After being washed three times with TBS for 5 minutes, the tissue section is reacted twice with Bond DAB solution for 3 minutes for coloration. […] The staining intensity and frequency of oral mucosal epithelial cells in the tissues are evaluated by the method provided by Shackelford. […]

VDR = test: Immunohistochemistry of inflamed oral mucosal tissue with anti-VDR; format: in vivo, domestic cats; conditions: after 6-week treatment vs 0th week
Procedure: as §1

[1] = test system: domestic cats with feline chronic gingivostomatitis (FCGS); test: Stomatitis disease activity index (SDAI) after mucogingival replacement surgery; format: in vivo
Source text: The stomatitis disease activity index is to score the condition of the subject by the following three aspects respectively and then add three scores to get the index: (1) owner evaluation (total score 0-3): the quality of life including appetite, activity level, grooming behavior, and perceived comfort would be scored by the owner, with a scale of 0-3, 0 is the best, and 3 is the worst; (2) weight (total score 0-3): the change in weight compared to most recent visit, with a scale of 0-3, 0 is an increase of more than 0.5 kg, 1 is an increase of 0.25-0.5 kg, 2 is an increase of 0-0.25 kg, and 3 is weight loss; (3) inflammatory symptoms (total score 0-24): inflammation in 8 different areas of the oral cavity, including maxillary buccal mucosa, mandibular buccal mucosa, maxillary attached gingiva, mandibular attached gingiva, lateral to palatoglossal folds, molar salivary gland, oropharynx, and sublingual area, with scale of 0-3, 0 is none, 1 is mild, 2 is moderate, and 3 is severe.

[2] = 0th week, vitamin D 200 ng/kg oral + 5 mg/kg deoxytetracycline (control: deoxytetracycline only), 5 mg/kg
[3] = 6th week, vitamin D 200 ng/kg oral + 5 mg/kg deoxytetracycline (control: deoxytetracycline only), 5 mg/kg

Substance | LC3B in the inflamed oral mucosal tissue (IHC intensity and frequency) (LC3B) | VDR in the inflamed oral mucosal tissue (IHC intensity and frequency) (VDR) | stomatitis disease activity index (SDAI) score ([1]; 0th week, vitamin D 200 ng/kg oral + 5 mg/kg deoxytetracycline (control: deoxytetracycline only)) | stomatitis disease activity index (SDAI) score ([1]; 2nd week, 5 mg/kg deoxytetracycline) | stomatitis disease activity index (SDAI) score ([1]; 6th week, vitamin D 200 ng/kg oral + 5 mg/kg deoxytetracycline (control: deoxytetracycline only)) | stomatitis disease activity index (SDAI) score [1, 2] | stomatitis disease activity index (SDAI) score [1, 3]
deoxytetracycline [control group (A)] | basically maintains a constant value | decreases | 11.44 | 9.19 | 11.22 | – | –
vitamin D [fat-soluble vitamin D] | increases | increases | – | – | – | 13 | 11.5
vitamin D [water-soluble vitamin D] | increases | remains unchanged | – | – | – | 17.67 | 13.92
